Measurements taken from patent publication US7173004B2, “Macrocyclic isoquinoline peptide inhibitors of hepatitis C virus” (Bristol-Myers Squibb Company, priority 2003, dated 2007).
Entries after “also recorded” stand apart in the source; their conditions may differ. Where two headings read alike, the source gives them in different places.

What was measured:
[1] = test system: HCV replicon (HCV 1b-377-neo replicon cells, Huh7); assay: HCV replicon cell-based FRET assay; settings: Hepatitis C virus, Huh-7
Procedure, shortened: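 Huh7 cells carrying a neo-selectable genotype 1b HCV replicon (~3,000 RNA copies/cell) were seeded at 1.5×10^4 cells/well and treated 4 days at 37 °C (0.5% DMSO final). CC50 was read by alamar Blue (4 h, ex 530/em 580 nm). Lysates with 10 μM EDANS/DABCYL NS3 protease FRET peptide were read kinetically (ex 340/em 490 nm, 25 °C, ~15 min) for % inhibition.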

HCV replicon = assay: Two-drug combination studies in HCV replicon system, combination index (Chou); assay type: cell-based; settings: for EC50: monotherapy, NS3 protease inhibitor = compound 28, read-out: NS3 protease inhibitor EC50
Excerpt: Since clinical drug resistance often develops in viral infections following single-agent therapies, there is a need to assess the additive, antagonistic, or synergistic properties of combination therapies. We used the HCV replicon system, as described above, to assess the potential use of our NS3 protease macrocyclic inhibitor in combination therapies with Intron A and inhibitors targeting other HCV proteins. Three HCV antivirals, Intron A (recombinant Interferon alfa-2b) an HCV NS5A inhibitor having the following structure:
In addition, compound 28 was also tested in 3-drug combinations with the NS5A and NS5B inhibitors.
For the experiments shown in Tables 8 and 9, inhibitors were tested at eleven concentrations each. 200× stock solutions of each inhibitor concentration were prepared by 2- or 3-fold dilution in DMSO prior to addition to cells/media. The drugs were tested as monotherapies and in combination with the NS3 protease inhibitor at various concentration ratios. Cells were exposed to compounds for 4 days and the amount of HCV inhibition was then determined using the FRET assay. The potential cytotoxicities of these combined agents were also analyzed in parallel by Alamar Blue staining. […] The degree of antagonism, additivity, or synergy was determined over a range of drug concentrations, and combination response curves were fit to assess the antiviral effects of the drug treatment combinations. The concentration ratios were analyzed using the method of Chou (Chou, Ting-Chao, and Rideout (Editors), (1991) Synergism and Antagonism in Chemotherapy, P. 61–101, Academic Press, New York). Tables 8 and 9 report the estimated EC50 values for the compounds tested, as well as the combination indices (CI). All estimates were computed using SAS Proc NLIN, and a two-parameter logistic. All combination indices were tested for departure from additivity using isobologram methods. Asymptotic confidence intervals were also calculated for each of the combination indices. These intervals are used to test for departure from additivity by comparing the bounds to one—a lower bound of the interval greater than 1 indicates antagonism, an upper bound of less than 1 indicates synergism, and a value of 1 contained in the interval indicates additivity.

[2] = 75, 90 and 95% effective doses, two experiments

SMILES | EC50 [1] [nM] | also measured
COc1ccc2c(OC3CC4C(=O)NC5(C(=O)NS(=O)(=O)C6CC6)CC5C=CCOCCCC(NC(=O)OC(C)(C)C)C(=O)N4C3)nccc2c1 (stereo not shown) [Compound 28, [4-Cyclopropanesulfonylaminocarbonyl-18-(6-methoxy-isoquinolin-1-yloxy)-2,15-dioxo-10-oxa-3,16-diaza-tricyclo[14.3.0.0^4,6]nonadec-7-en-14-yl]-carbamic acid tert-butyl ester] | < 50 | combination effect with Intron A (Interferon alfa-2b) (HCV replicon; [2]): either synergistic or additivity effects; also recorded: no drug antagonism; combination effect with the HCV NS5A inhibitor (HCV replicon; [2]): Synergy or additivity; also recorded: no drug antagonism; EC50 (HCV replicon; Hepatitis C virus, Table 9 (combinations with an NS5A inhibitor)): 9 nM; EC50 (HCV replicon; Table 9 (combinations with an NS5A inhibitor)): 11 nM; EC50 (HCV replicon; Table 8 (combinations with Interferon alfa-2b)): 10 nM
CCC1(S(=O)(=O)NC(=O)C23CC2C=CCCCSCC(NC(=O)OCC(C)(C)C)C(=O)N2CC(Oc4nccc5cc(OC)ccc45)CC2C(=O)N3)CC1 (stereo not shown) [Compound 45] | < 50 | –
COc1ccc2c(O[C@@H]3C[C@H]4C(=O)N[C@]5(C(=O)O)C[C@H]5/C=C\CCCO[C@H](C)[C@H](NC(=O)OC(C)(C)C)C(=O)N4C3)nccc2c1 [Compound 61] | 5000 to 50000 | –
COc1ccc2c(OC3CC4C(=O)NC5(C(=O)NS(=O)(=O)C6(C)CC6)CC5C=CCOCCCC(NC(=O)OC(C)C)C(=O)N4C3)nccc2c1 (stereo not shown) [Compound 35] | < 50 | –
COc1ccc2c(OC3CC4C(=O)NC5(C(=O)O)CC5C=CCCCCC(NC(=O)OC(C)(C)C)C(=O)N4C3)nccc2c1 (stereo not shown) [Compound 143] | 500 to 5000 | –
CC(C)(C)OC(=O)N[C@H]1CN(S(=O)(=O)c2ccccc2[N+](=O)[O-])CCC/C=C\[C@@H]2C[C@@]2(C(=O)O)NC(=O)[C@@H]2C[C@@H](Oc3nccc4ccccc34)CN2C1=O [Compound 144] | 5000 to 50000 | –
COc1ccc2c(OC3CC4C(=O)NC5(C(=O)NS(=O)(=O)C6CC6)CC5C=CCCCCCC(NC(=O)N5CCCC5)C(=O)N4C3)nccc2c1 (stereo not shown) [Compound 60] | < 50 | –
CC1(OC(=O)N[C@H]2CCCCC/C=C\[C@@H]3C[C@@]3(C(=O)NS(=O)(=O)C3CC3)NC(=O)[C@@H]3C[C@@H](Oc4nccc5ccccc45)CN3C2=O)CCC1 [Compound 56, [(Z)-(1S,4R,14S,18R)-4-cyclopropanesulfonylaminocarbonyl-18-(isoquinolin-1-yloxy)-2,15-dioxo-3,16-diaza-tricyclo[14.3.0.0^4,6]nonadec-7-en-14-yl]-carbamic acid 1-methyl-cyclobutyl ester] | < 50 | –
COc1ccc2c(OC3CC4C(=O)NC5(C(=O)NS(=O)(=O)C6CC6)CC5C=CCCCSCC(NC(=O)OCC(C)(C)C)C(=O)N4C3)nccc2c1 (stereo not shown) [Compound 75] | < 50 | –
COc1ccc2c(OC3CC4C(=O)NC5(C(=O)NS(=O)(=O)C6CC6)CC5C=CCOCCCC(NC(=O)NC(C)(C)C)C(=O)N4C3)nccc2c1 (stereo not shown) [Compound 34] | < 50 | –
CS(=O)(=O)NC1CCCCCC=CC2CC2(C(=O)NS(=O)(=O)C2CC2)NC(=O)C2CC(Oc3nccc4ccccc34)CN2C1=O (stereo not shown) [Compound 25] | 500 to 5000 | –
